Laboratory results published in patent US10370436B2, “Anti-pseudomonas Psl binding molecules and uses thereof” (priority 2011, dated 2019).

System: P. aeruginosa PAO10 LPS
Assay: Endotoxemia (LPS challenge) model
Assay type: in vivo, C57Bl/6 mice
Conditions: 0.2 mg/kg i.p. 2 h prior to challenge
Description: In particular, C57Bl/6 mice (10 per group) were dosed i.p. with mAb or PMB-mAb conjugate 6 h prior to challenge with P. aeruginosa PAO10 LPS (Sigma) and D-galactosamine. PMB control was dosed i.p. 2 h prior to challenge at 0.2 mg/kg and typically provides 80-100% protection. Control mice dosed with unconjugated CAM-003 all died within 18 h.
TM conjugates were dosed at 45, 15 and 5 mg/kg.

Polymyxin B [PMB, reference compound]
protection: 80-100%
